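Assay format: 96-well plates, 48-hour exposure. GI50 is the concentration that inhibits growth by half. TGI is the concentration that stops growth completely.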
Columns and labels:
Test in all cases: growth of human tumour cells (NCI), 48 h
A549 NSCLC = tested on: A549 NSCLC
SNB-19 CNS = tested on: SNB-19 CNS
LOX IMVI melanoma = tested on: LOX IMVI melanoma
DU-145 prostate = tested on: DU-145 prostate
SR leukemia = tested on: SR leukemia
SK-MEL-28 melanoma = tested on: SK-MEL-28 melanoma
M14 melanoma = tested on: M14 melanoma
EKVX NSCLC = tested on: EKVX NSCLC
K-562 leukemia = tested on: K-562 leukemia
SNB-75 CNS = tested on: SNB-75 CNS
RPMI-8226 leukemia = tested on: RPMI-8226 leukemia
OVCAR-8 ovarian = tested on: OVCAR-8 ovarian
OVCAR-5 ovarian = tested on: OVCAR-5 ovarian
HCT-15 colon = tested on: HCT-15 colon
IGROV1 ovarian = tested on: IGROV1 ovarian
A498 renal = tested on: A498 renal
HCC-2998 colon = tested on: HCC-2998 colon

Row | Structure (SMILES) | TGI (A549 NSCLC) [µM] | TGI (SNB-19 CNS) [µM] | TGI (LOX IMVI melanoma) [µM] | TGI (DU-145 prostate) [µM] | TGI (SR leukemia) [µM] | TGI (SK-MEL-28 melanoma) [µM] | TGI (M14 melanoma) [µM] | TGI (EKVX NSCLC) [µM] | TGI (K-562 leukemia) [µM] | TGI (SNB-75 CNS) [µM] | TGI (RPMI-8226 leukemia) [µM] | TGI (OVCAR-8 ovarian) [µM] | TGI (OVCAR-5 ovarian) [µM] | TGI (HCT-15 colon) [µM] | TGI (IGROV1 ovarian) [µM] | TGI (A498 renal) [µM] | TGI (HCC-2998 colon) [µM] | GI50 (RPMI-8226 leukemia) [µM]
1 | CC1[C@@H](OCc2ccccc2)COC(=O)N1Cc1ccccc1 (stereo partly drawn) | > 100 | > 100 | > 100 | > 100 | > 100 | > 100 | > 100 | > 100 | > 100 | > 100 | > 100 | > 100 | > 100 | > 100 | > 100 | – | – | –
2 | CNC(=O)CCNC(=O)CCC(=O)OC | > 100 | > 100 | – | > 100 | – | > 100 | > 100 | – | > 100 | – | – | > 100 | > 100 | – | – | > 100 | – | –
3 | COc1ccc2c3ccc4c(c3n(C)c2c1)C(=O)c1ccccc1C4=O | > 100 | > 100 | – | – | > 100 | > 100 | > 100 | > 100 | > 100 | > 100 | > 100 | > 100 | – | > 100 | > 100 | > 100 | > 100 | –
4 | CC1(O)/C(=N/O)CC2CC1C2(C)C (stereo not drawn) | > 100 | > 100 | > 100 | > 100 | – | > 100 | > 100 | – | > 100 | > 100 | > 100 | > 100 | > 100 | > 100 | > 100 | – | > 100 | –
5 | CN(C)CCNc1ccc2c(=O)n(CCN(C)C)c(=O)n3c4ccc(N)cc4c(=O)c1c23 | 0.599 | 0.788 | 0.283 | 2.08 | – | 0.819 | 0.449 | 0.593 | 0.0358 | 0.442 | – | 0.722 | 0.844 | 1.08 | 0.534 | 2.37 | 0.809 | –
6 | CC1NC(/C(=C/c2ccccc2O)NC(=O)c2ccccc2)OC1=O (stereo not drawn) | > 50 | > 50 | > 50 | – | > 50 | > 50 | > 50 | > 50 | > 50 | > 50 | > 50 | > 50 | > 50 | > 50 | > 50 | > 50 | > 50 | –
7 | [N-]=[N+]=NC1C(Br)C(=O)NC(=O)N1[C@H]1C[C@H](O)[C@@H](CO)O1 (stereo partly drawn) | > 100 | > 100 | > 100 | – | – | > 100 | > 100 | > 100 | > 100 | > 100 | > 100 | > 100 | > 100 | – | > 100 | > 100 | > 100 | 19.6
8 | CCC1(N=[N+]=[N-])C(=O)Nc2cc(C)ccc2C1=O (stereo not drawn) | > 100 | > 100 | > 100 | – | – | > 100 | > 100 | > 100 | > 100 | > 100 | – | > 100 | > 100 | > 100 | > 100 | > 100 | > 100 | –
9 | O=c1cc(-c2cccc(OC(F)(F)F)c2)[nH]c2cc3c(cc12)OCO3 | > 100 | > 100 | – | > 100 | – | > 100 | > 35.7 | > 100 | – | 17.3 | 0.271 | > 52.2 | > 100 | 2.66 | 16.3 | 7.75 | 0.157 | –
10 | COC(=O)[C@H](Cc1ccccc1)NC(=O)N1CCN(C(=O)N[C@@H](Cc2ccccc2)C(=O)OC)CCN(C(=O)N[C@@H](Cc2ccccc2)C(=O)OC)CC1 | > 100 | > 100 | > 100 | > 100 | – | > 100 | > 100 | > 100 | > 100 | > 100 | > 100 | > 100 | > 100 | > 100 | > 100 | > 100 | > 100 | –
11 | O=C(c1ccncc1)n1nc(-c2ccccc2)c(N=Nc2ccc([N+](=O)[O-])cc2)c1-c1ccccc1 | > 100 | > 100 | – | – | > 100 | > 100 | > 100 | 45.8 | > 100 | > 100 | > 100 | > 100 | – | – | > 100 | > 100 | > 100 | –
12 | COC(=O)CC1C(=O)OCc2c1cc1n(c2=O)Cc2c-1nc1ccccc1c2OC (stereo not drawn) | > 100 | > 100 | > 100 | – | 40.8 | > 100 | > 100 | > 100 | > 100 | > 100 | > 100 | > 100 | > 100 | > 100 | > 100 | > 100 | > 100 | –
13 | C=C[C@H]1CN2CCc3c([nH]c4c([C@H]5CCCN5C)c(O)ccc34)[C@@H]2C[C@@H]1C[C@H]1c2[nH]c3ccccc3c2CCN1C | 3.08 | 3.57 | 2.4 | 3 | – | 3.3 | 2.89 | 3.34 | – | 2.4 | – | 2.91 | 3.26 | 2.3 | 3.04 | – | 1.21 | –
14 | COC[n+]1cc2cc(OC)c(OC)cc2c2ccc3cc(OC)c(OC)cc3c21 | > 100 | > 100 | > 100 | – | – | > 100 | > 100 | > 100 | > 100 | > 100 | > 100 | > 100 | > 100 | > 100 | > 100 | – | > 100 | –
15 | COC(=O)c1c(C(=O)OC)c2cc(C(=O)c3ccccc3)ccn2c1Cl | > 100 | > 100 | > 100 | – | 40.5 | > 100 | > 100 | > 100 | > 100 | 55.4 | 51.7 | > 100 | > 100 | > 100 | > 100 | – | > 100 | –
